Values after ≈ are worked out from the molar mass of the structure shown.
Experiments:
[1] = Slurry complexation / solubilization of CFZ-API in SBECD with citric acid (Example 1); format: physicochemical
Experimental: In a 525 L stainless steel jacketed cooled tank controlled to 2° C.-8° C., a suspension of 2.0 kg carfilzomib-API (CFZ-API), 246 kg water for injection (WFI), and 100 kg sulfobutylether beta-cyclodextrin (SBECD) was prepared. Specifically, in the 525 L stainless steel jacketed cooled tank controlled to 2° C.-8° C., 100 kg SBECD was dissolved in 246 kg WFI. The Carfilzomib suspension was then prepared using 2.0 kg of CFZ-API. Mixing was performed using an impeller mixer to maintain suspension of the CFZ-API solids and dissolve the SBECD. In the same vessel, a probe style rotor-stator high shear mixer (homogenizer) was used as well as the low shear impeller. The high shear mixer was operated for approximately 1 hour yielding an even suspension and reduction of particle size for any larger primary particles or agglomerated API. After a suspension was achieved, 1.96 kg of citric acid was added as a 16% aqueous solution. The pH of the solution was then lowered inducing partial solubilization of the CFZ-API followed by and complexation due to the presence of SBECD. Mixing was continued for a further 24 hours with both the impeller and the high shear mixer and a dissolved concentration of CFZ-API of greater than 5.1 mg/mL was achieved. The suspension containing greater than 5.1 mg/mL of dissolved complexed CFZ-API was filtered with a 0.45 micrometer clarifying filter, then accurately diluted to a dissolved concentration of 5.0 mg/mL and pH adjusted with 1 N sodium hydroxide solution to achieve pH 3.5. The solution was sterile filtered, with two sequential 0.22 micrometer sterilizing filters, then filled into vials 12.36 mL each, containing 61.8 mg per vial of CFZ-API. The vials were partially stoppered and loaded into a lyophilizer and freeze dried over 103 hours using a freezing temperature of −45° C., primary drying temperature of −15° C., and secondary drying of +30° C. The lyophilized vials were fully stoppered, and capped, then stored at the product stability temperature of 2° C.-8° C. for up to two years before use. […]

[2] = CDP (chlorohydrin degradation product) formation in lyophilized complexed carfilzomib vs pH, water and sodium chloride content, HPLC (Example 2); format: physicochemical
Experimental: A multivariate statistical design of experiments was conducted to assess factors controlling the level of chlorohydrin degradation product as a function of processing parameters and storage time over six months. The complexation was performed in the proportion and parameters given in Example 1, with the following modifications: (i) the complexation process was performed at 2 L batch size; (ii) the final pH of solution before vial filling was varied for purposes of the experiment from 3.0, to 4.0; (iii) sodium chloride was spiked into SBECD in some experiments to create a high sodium chloride condition; (iv) water content of the lyophilized final product in stoppered vials was produced at high and low sodium chloride conditions via early termination and stoppering of vials to create a higher residual water content condition.
The solution of complexed carfilzomib for injection bulk solution pre-lyophilization included aqueous 5 mg/mL carfilzomib, 250 mg/mL Captisol® (SBECD) and 4.86 mg/mL citric acid, pH adjusted with aqueous sodium hydroxide. Compounding of the bulk solutions for lyophilization followed the procedure detailed in Example 1 with the following manipulations to create solutions with different specific attributes: • 1. pH was adjusted to 3.0 and 4.0 • 2. Sodium chloride was spiked into the Captisol® to create a “High Chloride” condition Captisol® manufactured by Cydex, a subsidiary of Ligand, has a standard product analysis range for sodium chloride from 0.05% to 0.2% (w/v). […] 400 g of this Captisol® was required per batch for the process to be performed at 2 L scale batches of complexation processing (in same proportions and general parameters per Example 1). To create the “high chloride” condition, 0.6 g of NaCl was added to 399.4 g of Captisol® which thus mimicked what a batch containing 0.2% chloride Captisol® would be comprised of.
In order to generate two (2) moisture content conditions in the final lyophilized vials, two (2) sets of 61.8 mg/vial (of CFZ-API) samples were lyophilized. The first cycle generated the “dry” sample set of vials containing approximately 0.6% residual water per Example 1 lyophilization parameters. For the second sample set, lyophilization was terminated and vials stoppered earlier in the secondary drying phase to generate the “wet” condition vials, with residual moisture approximately 2.4% water per vial initially.
The bulk solution of complexed carfilzomib was analyzed during manufacture by High Performance Liquid Chromatography (HPLC) to accurately quantify the concentration of dissolved and complexed carfilzomib drug substance. Subsequently, additional water was added to accurately dilute the bulk complexed solution. After this dilution step, HPLC was used again to ensure a target concentration of 5.0 mg/mL was achieved. Samples of the three (3) final bulk solutions were analyzed for potency and purity confirmation testing by HPLC. […] Karl Fischer Coulometry method was used for the water content determination in the lyophilized drug product.

[3] = Solubility of carfilzomib as a function of SBECD concentration, pH 1.5 and 3.5, 5° C. and 25° C. (Example 4); format: physicochemical; details: SBECD solutions, citric acid 30 mM, pH 1.5 and 3.5, 5° C. vs 25° C., 24 hours
Experimental: The experiments at acidic conditions below the target pH values and titrated to pH 1.5 or 3.5 using aqueous sodium hydroside solution. Measurements of solubilized concentration were those from samples analyzed after 24 hours of time to equilibrate.

extent of solubilization vs API particle size (FIG. 2) ([1]; 24 hour complexation, mean API particle size 21.1 vs 7.5 micrometers): equivalent extent of solubilization
dissolved concentration of CFZ-API ([1]; SBECD/WFI/citric acid slurry, 2° C.-8° C., 24 hours mixing): greater than 5.1 mg/mL
effect of higher SBECD concentration on solubility (FIG. 3) ([1]; process of Example 1): increased the solubility
% Area of CDP after 6 months (HPLC data) ([2]; pH 3.00, water 0.7%, sodium chloride 0.05%, 5° C.): 0.00 % Area
% Area of CDP after 6 months (HPLC data) ([2]; pH 3.00, water 0.7%, sodium chloride 0.05%, 25° C.): 0.14 % Area
% Area of CDP after 6 months (HPLC data) ([2]; pH 3.00, water 0.7%, sodium chloride 0.2%, 5° C.): 0.13 % Area
% Area of CDP after 6 months (HPLC data) ([2]; pH 3.00, water 0.7%, sodium chloride 0.2%, 25° C.): 0.70 % Area
% Area of CDP after 6 months (HPLC data) ([2]; pH 3.00, water 2%, sodium chloride 0.05%, 5° C.): 0.02 % Area
% Area of CDP after 6 months (HPLC data) ([2]; pH 3.00, water 2%, sodium chloride 0.05%, 25° C.): 0.55 % Area
% Area of CDP after 6 months (HPLC data) ([2]; pH 3.00, water 2%, sodium chloride 0.2%, 5° C.): 0.28 % Area
% Area of CDP after 6 months (HPLC data) ([2]; pH 3.00, water 2%, sodium chloride 0.2%, 25° C.): 2.57 % Area
% Area of CDP after 6 months (HPLC data) ([2]; pH 4.00, water 0.7%, sodium chloride 0.05%, 5° C.): 0.00 % Area
% Area of CDP after 6 months (HPLC data) ([2]; pH 4.00, water 0.7%, sodium chloride 0.05%, 25° C.): 0.09 % Area
% Area of CDP after 6 months (HPLC data) ([2]; pH 4.00, water 0.7%, sodium chloride 0.2%, 5° C.): 0.08 % Area
% Area of CDP after 6 months (HPLC data) ([2]; pH 4.00, water 0.7%, sodium chloride 0.2%, 25° C.): 0.36 % Area
% Area of CDP after 6 months (HPLC data) ([2]; pH 4.00, water 2%, sodium chloride 0.05%, 5° C.): 0.02 % Area
% Area of CDP after 6 months (HPLC data) ([2]; pH 4.00, water 2%, sodium chloride 0.05%, 25° C.): 0.35 % Area
% Area of CDP after 6 months (HPLC data) ([2]; pH 4.00, water 2%, sodium chloride 0.2%, 5° C.): 0.18 % Area
% Area of CDP after 6 months (HPLC data) ([2]; pH 4.00, water 2%, sodium chloride 0.2%, 25° C.): 1.71 % Area
difference in solubility between low and high temperature (FIG. 6) [3]: No significant differences in solubility
solubility (physchem; pH 1, simulated gastric fluid): 1800 µg/mL (≈ 2500 µM)
solubility (physchem; pH 3, aqueous buffer): 20 µg/mL (≈ 27.8 µM)
solubility (physchem; pH 5, aqueous buffer): 2 µg/mL (≈ 2.78 µM)
solubility (physchem; water): 2 µg/mL (≈ 2.78 µM)
SMILES: CC(C)C[C@H](NC(=O)[C@H](CCc1ccccc1)NC(=O)CN1CCOCC1)C(=O)N[C@@H](Cc1ccccc1)C(=O)N[C@@H](CC(C)C)C(=O)[C@@]1(C)CO1 [carfilzomib]

Reference: patent publication US20130303482A1, “Cylodextrin Complexation Methods for Formulating Peptide Proteasome Inhibitors” (ONYX THERAPEUTICS, INC., priority 2012, published 2013)
